Reference: ChEMBL document CHEMBL3885861, “Open TG-GATES”

Organism: Rattus norvegicus
Assay: Open TG-GATES - Regimen: Daily Repeat
Assay type: toxicity, organism-based, Sprague-Dawley
Set-up: regimen Daily Repeat, gender Male, age 6 weeks
Settings: in vivo, po, route gavage; for gamma-GTP / ALP / ALT / AST / BUN / CRE / Ca / Cl / DBIL / GLC / IP / K / LDH / Na / PL / RALB / TBIL / TC / TG / TP: tissue Plasma; for APTT / Bas / Eos / Fbg / Ht / Lym / MCH / MCHC / MCV / Mono / Neu / PT / Plat / RBC / Ret / WBC: tissue Blood; for KIDNEY_L / KIDNEY_R / KIDNEY_TOTAL: tissue Kidney; for LIVER: tissue Liver
[1] = 100 mg/kg, 72 h, dose level High, time 3 day
[2] = 100 mg/kg, […], dose level High, time 7 day
[3] = 100 mg/kg, […], dose level High, time 14 day
[4] = 100 mg/kg, […], dose level High, time 28 day

In the case of `Cc1cccc(Nc2cc(Cl)nc(SCC(=O)O)n2)c1C` [PIRINIXIC ACID], the gamma-GTP (30 mg/kg, […], dose level Middle, time 28 day) is reported as 1.2 IU/L, the TERMINAL_BW [1] is reported as 236.1 g and the APTT [1] is reported as 16.4 s. It also gave a Bas [1] of 0%, an Eos [1] of 1% and a Fbg [1] of 210.2 mg/dL. The Ht [1] was 39.4%, the Lym [1] was 73.4% and the MCH [1] was 21.2 pg. For the same compound, the MCHC [1] was 34%, the MCV [1] was 62.5 fL and the Mono [1] was 3%. It also gave a Neu [1] of 22%, a PT [1] of 12.2 s and a Plat [1] of 112.9 x10_4/uL. The RBC [1] was 630.2 x10_4/ul, the Ret [1] was 5.7% and the WBC [1] was 78.7 x10_2/uL. For the same compound, the KIDNEY_L [1] was 1.1 g, the KIDNEY_R [1] was 1.1 g and the KIDNEY_TOTAL [1] was 2.1 g. For the same compound, the LIVER [1] was 16.9 g, the ALP [1] was 1976.4 IU/L and the ALT [1] was 70.6 IU/L. For the same compound, the AST [1] was 103.4 IU/L, the BUN [1] was 15.8 mg/dL and the CRE [1] was 0.2 mg/dL. For the same compound, the Ca [1] was 10.8 mg/dL, the Cl [1] was 105.2 meq/L and the DBIL [1] was 0.022 mg/dL. For the same compound, the GLC [1] was 192.2 mg/dL, the IP [1] was 7.3 mg/dL and the K [1] was 4.1 meq/L. It also gave an LDH [1] of 189.6 IU/L, a Na [1] of 144 meq/L and a PL [1] of 116 mg/dL. It also gave an RALB [1] of 2.7 g/dL, a TBIL [1] of 0.028 mg/dL and a TC [1] of 59 mg/dL. It also gave a TG [1] of 34 mg/dL, a TP [1] of 5.4 g/dL and a gamma-GTP [1] of 1 IU/L. For the same compound, the TERMINAL_BW [2] was 275.8 g, the TERMINAL_BW [3] was 297.8 g and the TERMINAL_BW [4] was 351.6 g. It also gave an APTT [2] of 15.4 s, a Bas [2] of 0% and an Eos [2] of 0.8%. It also gave a Fbg [2] of 225 mg/dL, a Ht [2] of 36.2% and a Lym [2] of 76.6%. It also gave an MCH [2] of 21.4 pg, an MCHC [2] of 34.3% and an MCV [2] of 62.4 fL. It also gave a Mono [2] of 3.2%, a Neu [2] of 19% and a PT [2] of 12.5 s. For the same compound, the Plat [2] was 129.5 x10_4/uL, the RBC [2] was 580.4 x10_4/ul and the Ret [2] was 5.9%. The WBC [2] was 116.4 x10_2/uL, the APTT [3] was 17.3 s and the Bas [3] was 0%. For the same compound, the Eos [3] was 0.8%, the Fbg [3] was 207 mg/dL and the Ht [3] was 38.8%. It also gave a Lym [3] of 75.4%, an MCH [3] of 20.3 pg and an MCHC [3] of 34.6%. It also gave an MCV [3] of 58.7 fL, a Mono [3] of 3.6% and a Neu [3] of 19.4%. For the same compound, the PT [3] was 12.9 s, the Plat [3] was 121.9 x10_4/uL and the RBC [3] was 661.2 x10_4/ul. It also gave a Ret [3] of 4.3%, a WBC [3] of 147.9 x10_2/uL and an APTT [4] of 16.6 s. It also gave a Bas [4] of 0%, an Eos [4] of 1.2% and a Fbg [4] of 216.6 mg/dL. It also gave a Ht [4] of 39.4%, a Lym [4] of 74.2% and an MCH [4] of 18.8 pg. The MCHC [4] was 35%, the MCV [4] was 53.7 fL and the Mono [4] was 4%. For the same compound, the Neu [4] was 19.6%, the PT [4] was 12.4 s and the RBC [4] was 734.2 x10_4/ul. For the same compound, the Ret [4] was 2.5%, the WBC [4] was 118.8 x10_2/uL and the KIDNEY_L [2] was 1.2 g. For the same compound, the KIDNEY_R [2] was 1.2 g, the KIDNEY_TOTAL [2] was 2.3 g and the KIDNEY_L [3] was 1.3 g. For the same compound, the KIDNEY_R [3] was 1.3 g, the KIDNEY_TOTAL [3] was 2.6 g and the KIDNEY_L [4] was 1.6 g. The KIDNEY_R [4] was 1.6 g, the KIDNEY_TOTAL [4] was 3.1 g and the LIVER [2] was 24.1 g. It also gave an LIVER [3] of 26.1 g, an LIVER [4] of 30.8 g and an ALP [2] of 1688.2 IU/L. It also gave an ALT [2] of 46.4 IU/L, an AST [2] of 66.4 IU/L and a BUN [2] of 18.8 mg/dL. For the same compound, the CRE [2] was 0.2 mg/dL, the Ca [2] was 11.3 mg/dL and the Cl [2] was 102.8 meq/L. For the same compound, the DBIL [2] was 0.014 mg/dL, the GLC [2] was 201.8 mg/dL and the IP [2] was 7.4 mg/dL. For the same compound, the K [2] was 4 meq/L, the LDH [2] was 142 IU/L and the Na [2] was 142 meq/L. It also gave a PL [2] of 143 mg/dL, an RALB [2] of 3 g/dL and a TBIL [2] of 0.026 mg/dL. For the same compound, the TC [2] was 69.4 mg/dL, the TG [2] was 52 mg/dL and the TP [2] was 6.1 g/dL. For the same compound, the gamma-GTP [2] was 0.6 IU/L, the ALP [3] was 1872.4 IU/L and the ALT [3] was 49.6 IU/L. It also gave an AST [3] of 75 IU/L, a BUN [3] of 19.4 mg/dL and a CRE [3] of 0.2 mg/dL. It also gave a Ca [3] of 10.4 mg/dL, a Cl [3] of 102.8 meq/L and a DBIL [3] of 0.022 mg/dL. The GLC [3] was 189.6 mg/dL, the IP [3] was 7.1 mg/dL and the K [3] was 3.8 meq/L. The LDH [3] was 141 IU/L, the Na [3] was 141.8 meq/L and the PL [3] was 149.6 mg/dL. For the same compound, the RALB [3] was 2.9 g/dL, the TBIL [3] was 0.032 mg/dL and the TC [3] was 74.8 mg/dL. For the same compound, the TG [3] was 44.4 mg/dL, the TP [3] was 6.1 g/dL and the gamma-GTP [3] was 1.2 IU/L. The ALP [4] was 1888.4 IU/L, the ALT [4] was 41.8 IU/L and the AST [4] was 65.8 IU/L. For the same compound, the BUN [4] was 17.2 mg/dL, the CRE [4] was 0.2 mg/dL and the Ca [4] was 10.8 mg/dL. For the same compound, the Cl [4] was 102.2 meq/L, the DBIL [4] was 0.008 mg/dL and the GLC [4] was 189.2 mg/dL. The IP [4] was 7.6 mg/dL, the K [4] was 3.7 meq/L and the LDH [4] was 109 IU/L. The Na [4] was 141.8 meq/L, the PL [4] was 147.4 mg/dL and the RALB [4] was 3 g/dL. The TBIL [4] was 0.048 mg/dL, the TC [4] was 80 mg/dL and the TG [4] was 43.6 mg/dL. It also gave a TP [4] of 6.6 g/dL and a gamma-GTP [4] of 1 IU/L.
